Each block holds one molecule with its values, some of them ahead of it. The source made the active and inactive calls. No cut-off for these calls is given here.
Columns and labels:
[1] = molecular target: T1, Protein-serine O-palmitoleoyltransferase porcupine (Homo sapiens, UniProt Q9H237); assay: Inhibition of porcupine (unknown origin) expressed in mouse L Wnt3A cells co-cultured with TM3 cells harboring luciferase reporter gene assessed as reduction in Wnt ligand-driven LEF/TCF-dependent transcriptional activity; format: cell-based
T1 sequence (Q9H237 whole entry): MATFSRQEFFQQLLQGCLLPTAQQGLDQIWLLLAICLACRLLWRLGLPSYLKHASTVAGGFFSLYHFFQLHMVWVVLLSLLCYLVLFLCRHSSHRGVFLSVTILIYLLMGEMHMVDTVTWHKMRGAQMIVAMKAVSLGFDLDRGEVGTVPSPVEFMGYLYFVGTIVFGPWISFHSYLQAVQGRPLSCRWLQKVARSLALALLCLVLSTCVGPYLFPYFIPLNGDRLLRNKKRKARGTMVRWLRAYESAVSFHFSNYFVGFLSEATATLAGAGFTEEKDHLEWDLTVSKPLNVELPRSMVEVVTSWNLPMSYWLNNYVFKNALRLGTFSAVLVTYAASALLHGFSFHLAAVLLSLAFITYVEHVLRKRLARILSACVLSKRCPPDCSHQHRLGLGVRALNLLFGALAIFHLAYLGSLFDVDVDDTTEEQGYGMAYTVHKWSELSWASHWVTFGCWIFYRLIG

[2] = Half life in mouse liver microsomes at 1 uM in presence of NADPH by LC-MS/MS method; format: ADME
[3] = Stability of the compound in rat plasma assessed as drug remaining at 1 uM incubated for 30 mins by LC-MS/MS method; format: ADME, cell-free; conditions: read-out: Stability
[4] = Chemical stability in simulated gastric fluid assessed as remaining compound level incubated for 0 hrs at 200 uM at 40 degC by HPLC method; format: physicochemical; conditions: read-out: Stability
[5] = Stability of the compound in rat plasma assessed as drug remaining at 1 uM incubated for 8 hr by LC-MS/MS method; format: ADME, cell-free; conditions: read-out: Stability
CYP3A4 = CYP3A4 (Homo sapiens, UniProt P08684); assay: Inhibition of CYP3A4 in human liver microsomes at 10 uM pre-incubated for 10 mins before midazolam substrate and NADPH addition by LC-MS/MS method; format: ADME; conditions: probe midazolam
[6] = Intrinsic clearance in mouse liver microsomes at 1 uM incubated for 60 mins in presence of NADPH by LC-MS/MS method; format: ADME; conditions: read-out: CLH
[7] = Stability of the compound in rat plasma assessed as drug remaining at 1 uM incubated for 1 hr by LC-MS/MS method; format: ADME, cell-free; conditions: read-out: Stability
[8] = Chemical stability in simulated gastric fluid assessed as remaining compound level incubated for 4 hrs at 200 uM at 40 degC by HPLC method; format: physicochemical; conditions: read-out: Stability
[9] = Half life in human liver microsomes at 1 uM in presence of NADPH by LC-MS/MS method; format: ADME
CYP2D6 = CYP2D6 (Homo sapiens, UniProt P10635); assay: Inhibition of CYP2D6 in human liver microsomes at 10 uM pre-incubated for 10 mins before dextromethorphan substrate and NADPH addition by LC-MS/MS method; format: ADME; conditions: probe dextromethorphan
[10] = Intrinsic clearance in human liver microsomes at 1 uM incubated for 60 mins in presence of NADPH by LC-MS/MS method; format: ADME; conditions: read-out: CLH
[11] = Chemical stability in simulated gastric fluid assessed as remaining compound level incubated for 8 hrs at 200 uM at 40 degC by HPLC method; format: physicochemical; conditions: read-out: Stability
[12] = Effect on total intracellular Wnt3a levels in HEK293T cells transfected with pLinbin- Wnt3A plasmid at 0.1 uM incubated for 48 hrs by Western blotting method; format: ADME, cell-based; conditions: human, hek-293t
[13] = molecular target: T2, Protein-serine O-palmitoleoyltransferase porcupine (Homo sapiens) (UniProt Q9H237); assay: Potency index, ratio of IC50 for LGK974 to IC50 for test compound for inhibition of porcupine (unknown origin) expressed in mouse L Wnt3A cells co-cultured with HEK293 STF cells by STF reporter gene based paracrine cellular reporter gene assay; format: cell-based
T2 sequence (whole entry): T1 sequence (Q9H237 whole entry)

[14] = molecular target: T2, Protein-serine O-palmitoleoyltransferase porcupine (Homo sapiens); assay: Inhibition of porcupine (unknown origin) expressed in HEK293T cells transfected with pLinbin- Wnt3A plasmid assessed as inhibition of Wnt3A secretion at 0.1 uM incubated for 48 hrs by Western blotting method; format: cell-based; conditions: HEK-293T

Chain of CYP3A4 (P08684 whole entry): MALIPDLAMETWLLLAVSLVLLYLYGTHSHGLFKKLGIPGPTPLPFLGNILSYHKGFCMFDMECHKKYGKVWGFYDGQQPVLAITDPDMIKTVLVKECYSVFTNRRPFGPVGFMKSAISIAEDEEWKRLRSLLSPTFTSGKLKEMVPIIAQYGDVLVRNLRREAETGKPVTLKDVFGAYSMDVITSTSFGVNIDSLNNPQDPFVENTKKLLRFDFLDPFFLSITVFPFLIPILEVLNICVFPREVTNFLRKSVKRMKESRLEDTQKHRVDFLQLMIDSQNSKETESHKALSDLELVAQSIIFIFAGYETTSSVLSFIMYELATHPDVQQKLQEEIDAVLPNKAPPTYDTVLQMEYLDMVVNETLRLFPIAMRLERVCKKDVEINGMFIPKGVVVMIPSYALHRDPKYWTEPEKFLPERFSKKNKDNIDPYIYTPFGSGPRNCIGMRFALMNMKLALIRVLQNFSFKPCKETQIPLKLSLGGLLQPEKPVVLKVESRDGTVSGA
Chain of CYP2D6 (P10635 whole entry): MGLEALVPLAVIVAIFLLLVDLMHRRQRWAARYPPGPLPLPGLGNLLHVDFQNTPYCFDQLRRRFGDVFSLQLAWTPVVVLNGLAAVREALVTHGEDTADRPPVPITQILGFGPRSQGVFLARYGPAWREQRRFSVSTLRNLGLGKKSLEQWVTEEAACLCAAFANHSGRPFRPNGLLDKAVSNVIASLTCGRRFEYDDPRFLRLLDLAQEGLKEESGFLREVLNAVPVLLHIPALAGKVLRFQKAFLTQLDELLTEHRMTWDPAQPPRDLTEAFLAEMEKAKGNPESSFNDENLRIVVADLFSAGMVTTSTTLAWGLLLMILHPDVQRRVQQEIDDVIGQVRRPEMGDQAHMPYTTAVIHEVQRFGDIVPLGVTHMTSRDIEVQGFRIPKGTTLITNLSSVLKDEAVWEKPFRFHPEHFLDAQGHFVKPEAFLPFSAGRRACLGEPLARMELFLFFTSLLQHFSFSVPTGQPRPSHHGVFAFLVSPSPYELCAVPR

- IC50 [1]: 0.67 nM
Compound: Cc1cc(-c2ccc(N(C)CC(=O)Nc3ccc(-c4cnccn4)cn3)cc2)ccn1

- IC50 [1]: > 1000 nM
Compound: Cn1ncc2cc(OCC(=O)Nc3ccc(-c4cnccn4)cn3)ccc21

- IC50 [1]: 24 nM
Compound: CC(=O)N1CCc2ccc(OCC(=O)Nc3ccc(-c4cnccn4)cn3)cc2C1

- IC50 [1]: 40 nM
Compound: Cc1cc(-c2cccc(SCC(=O)Nc3ccc(-c4cnccn4)cn3)c2)ccn1

- IC50 [1]: 2.7 nM
Compound: N#Cc1ccc2cc(OCC(=O)Nc3ccc(-c4cnccn4)cn3)ccc2c1

- IC50 [1]: 30 nM
Compound: O=C(COc1ccc2ccncc2c1)Nc1ccc(-c2cnccn2)cn1

- IC50 [1]: > 1000 nM
Compound: O=C(COc1ccc2[nH]ncc2c1)Nc1ccc(-c2cnccn2)cn1

- IC50 [1]: 5 nM
Compound: Cc1cc(-c2ccc(OC(=O)Nc3ccc(-c4ccccc4)cc3)cc2)ccn1

- IC50 [1]: 485 nM
Compound: N#Cc1ccc(OCC(=O)Nc2ccc(-c3cnccn3)cn2)cc1

- half-life at 1 µM [2]: 3.4 min
- remaining at 0.5 h, 1 µM [3]: 93%
- remaining at 0 h, 200 µM [4]: 98%
- remaining at 8 h, 1 µM [5]: 83%
- inhibition at 10 µM (CYP3A4): 60%
- CLint scaled at 1 µM [6]: 1790 mL/min/kg
- remaining at 1 h, 1 µM [7]: 91%
- IC50 [1]: 0.53 nM
- remaining at 4 h, 200 µM [8]: 89%
- half-life at 1 µM [9]: 6.8 min
- inhibition at 10 µM (CYP2D6): 45%
- CLint scaled at 1 µM [10]: 263 mL/min/kg
- remaining at 8 h, 200 µM [11]: 83%
Compound: Cc1cc(-c2ccc(SCC(=O)Nc3ccc(-c4cnccn4)cn3)cc2)ccn1

- half-life at 1 µM [2]: 19 min
- remaining at 0.5 h, 1 µM [3]: 100%
- remaining at 0 h, 200 µM [4]: 97%
- remaining at 8 h, 1 µM [5]: 100%
- inhibition at 10 µM (CYP3A4): 67%
- CLint scaled at 1 µM [6]: 321 mL/min/kg
- remaining at 1 h, 1 µM [7]: 100%
- IC50 [1]: 0.11 nM
- Ratio IC50 [13]: 5
- inhibition [14]: Active
- remaining at 4 h, 200 µM [8]: 85%
- half-life at 1 µM [9]: 41 min
- inhibition at 10 µM (CYP2D6): 53%
- CLint scaled at 1 µM [10]: 43 mL/min/kg
- remaining at 8 h, 200 µM [11]: 71%
Compound: Cc1cc(-c2ccc(OC(C)C(=O)Nc3ccc(-c4cnccn4)cn3)cc2)ccn1 (stereo not given)
- Activity [12]: Non-toxic

- IC50 [1]: > 1000 nM
Compound: Nc1noc2ccc(OCC(=O)Nc3ccc(-c4cnccn4)cn3)cc12

- half-life at 1 µM [2]: 4.3 min
- remaining at 0.5 h, 1 µM [3]: 97%
- remaining at 0 h, 200 µM [4]: 96%
- remaining at 8 h, 1 µM [5]: 84%
- inhibition at 10 µM (CYP3A4): 47%
- CLint scaled at 1 µM [6]: 1430 mL/min/kg
- remaining at 1 h, 1 µM [7]: 90%
- IC50 [1]: 0.23 nM
- inhibition [14]: Active
- remaining at 4 h, 200 µM [8]: 81%
- half-life at 1 µM [9]: 13 min
- inhibition at 10 µM (CYP2D6): 19%
- CLint scaled at 1 µM [10]: 135 mL/min/kg
- remaining at 8 h, 200 µM [11]: 67%
Compound: Cc1cc(-c2ccc(OCC(=O)Nc3ccc(-c4cnccn4)cn3)cc2)ccn1
- Activity [12]: Non-toxic

- IC50 [1]: 2.2 nM
Compound: Cc1cc(-c2ccc(OC(=O)Nc3ccc(-c4cccnc4)cc3)cc2)ccn1

- IC50 [1]: > 1000 nM
Compound: O=C(CNc1ccc2[nH]ncc2c1)Nc1ccc(-c2cnccn2)cn1

- IC50 [1]: 164 nM
Compound: Cc1cc(-c2cccc(NCC(=O)Nc3ccc(-c4cnccn4)cn3)c2)ccn1

- IC50 [1]: > 1000 nM
Compound: Cn1ncc2cc(NCC(=O)Nc3ccc(-c4cnccn4)cn3)ccc21

- IC50 [1]: > 1000 nM
Compound: COc1ccc2cc(OCC(=O)Nc3ccc(-c4cnccn4)cn3)ccc2c1

- half-life at 1 µM [2]: 4.8 min
- remaining at 0.5 h, 1 µM [3]: 98%
- remaining at 0 h, 200 µM [4]: 100%
- remaining at 8 h, 1 µM [5]: 90%
- inhibition at 10 µM (CYP3A4): 45%
- CLint scaled at 1 µM [6]: 1260 mL/min/kg
- remaining at 1 h, 1 µM [7]: 94%
- IC50 [1]: 0.19 nM
- remaining at 4 h, 200 µM [8]: 97%
- half-life at 1 µM [9]: 21 min
- inhibition at 10 µM (CYP2D6): 47%
- CLint scaled at 1 µM [10]: 84 mL/min/kg
- remaining at 8 h, 200 µM [11]: 93%
Compound: Cc1cc(-c2ccc(CCC(=O)Nc3ccc(-c4cnccn4)cn3)cc2)ccn1

- IC50 [1]: 188 nM
Compound: Cc1cc(-c2cccc(OCC(=O)Nc3ccc(-c4cnccn4)cn3)c2)ccn1

- half-life at 1 µM [2]: 14 min
- remaining at 0.5 h, 1 µM [3]: 100%
- remaining at 0 h, 200 µM [4]: 95%
- remaining at 8 h, 1 µM [5]: 98%
- inhibition at 10 µM (CYP3A4): 50%
- CLint scaled at 1 µM [6]: 440 mL/min/kg
- remaining at 1 h, 1 µM [7]: 100%
- IC50 [1]: 0.96 nM
- inhibition [14]: Active
- remaining at 4 h, 200 µM [8]: 88%
- half-life at 1 µM [9]: 39 min
- inhibition at 10 µM (CYP2D6): 53%
- CLint scaled at 1 µM [10]: 45 mL/min/kg
- remaining at 8 h, 200 µM [11]: 85%
Compound: Cc1cc(-c2ccc(NCC(=O)Nc3ccc(-c4cnccn4)cn3)cc2)ccn1
- Activity [12]: Non-toxic

- IC50 [1]: 483 nM
Compound: CC(=O)N1CCN(c2ccc(OCC(=O)Nc3ccc(-c4cnccn4)cn3)cc2)CC1

- IC50 [1]: > 1000 nM
Compound: O=C(COc1ccc2ccccc2c1)Nc1ccc(-c2cnccn2)cn1
